Measured values published in ChEMBL document CHEMBL4665716, “Identification of a novel series of azabenzimidazole-derived inhibitors of spleen tyrosine kinase” (Bioorg Med Chem Lett, 2020).
≈ marks a conversion by molar mass, not a printed value.

What was measured:
[1] = biological target: Tyrosine-protein kinase SYK (Homo sapiens, UniProt P43405); test: Inhibition of SYK (unknown origin)
SUD4 = test: Growth inhibition of human SU-DHL-4 cells; format: functional
[2] = biological target: Voltage-gated inwardly rectifying potassium channel KCNH2 (Homo sapiens, UniProt Q12809); test: Inhibition of human ERG
[3] = Apparent permeability in human Caco-2 cells; format: ADME, cell-based
[4] = Solubility of compound; format: physicochemical
[5] = Lipophilicity, logD of compound; format: physicochemical; details: octanol/water
[6] = Intrinsic clearance in rat hepatocytes assessed per 10^6 cells; format: ADME, cell-based, Hepatocyte; details: read-out: CLH
[7] = Intrinsic clearance in human liver microsome; format: ADME; details: microsomes

Sequence of Voltage-gated inwardly rectifying potassium channel KCNH2 (Q12809 whole entry): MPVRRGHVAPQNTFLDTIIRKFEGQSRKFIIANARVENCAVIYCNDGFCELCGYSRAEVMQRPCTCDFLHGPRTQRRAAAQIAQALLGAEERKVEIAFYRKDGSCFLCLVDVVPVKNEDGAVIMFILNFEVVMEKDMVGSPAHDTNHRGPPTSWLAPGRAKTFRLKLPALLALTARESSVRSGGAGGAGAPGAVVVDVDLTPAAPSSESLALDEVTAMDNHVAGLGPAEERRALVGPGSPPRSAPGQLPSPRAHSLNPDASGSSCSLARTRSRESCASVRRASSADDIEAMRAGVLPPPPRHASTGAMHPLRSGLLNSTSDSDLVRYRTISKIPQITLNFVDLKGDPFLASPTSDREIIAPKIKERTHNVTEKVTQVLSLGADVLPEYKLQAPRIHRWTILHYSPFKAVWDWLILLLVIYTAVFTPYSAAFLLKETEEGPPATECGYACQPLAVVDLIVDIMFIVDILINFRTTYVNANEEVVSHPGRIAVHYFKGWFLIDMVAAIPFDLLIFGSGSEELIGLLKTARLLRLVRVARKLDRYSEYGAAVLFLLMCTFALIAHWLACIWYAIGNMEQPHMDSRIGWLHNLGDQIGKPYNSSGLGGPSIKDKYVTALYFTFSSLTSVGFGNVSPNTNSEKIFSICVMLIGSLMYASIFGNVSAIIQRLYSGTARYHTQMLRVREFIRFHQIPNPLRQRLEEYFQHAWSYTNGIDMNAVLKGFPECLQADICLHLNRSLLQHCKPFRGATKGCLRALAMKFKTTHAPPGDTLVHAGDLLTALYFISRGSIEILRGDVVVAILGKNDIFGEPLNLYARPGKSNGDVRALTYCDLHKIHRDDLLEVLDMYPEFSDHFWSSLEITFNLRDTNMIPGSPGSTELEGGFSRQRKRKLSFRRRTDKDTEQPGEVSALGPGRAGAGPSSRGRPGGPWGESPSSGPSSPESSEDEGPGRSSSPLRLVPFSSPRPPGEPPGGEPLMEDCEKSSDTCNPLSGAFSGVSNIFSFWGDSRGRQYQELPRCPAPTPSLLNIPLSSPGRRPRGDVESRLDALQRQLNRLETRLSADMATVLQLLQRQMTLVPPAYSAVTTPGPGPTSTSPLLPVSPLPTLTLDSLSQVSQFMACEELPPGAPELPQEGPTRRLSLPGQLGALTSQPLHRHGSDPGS

Structure (SMILES) | IC50 [1] | GI50 (SUD4) | IC50 [2] | other results
Cn1ccc2c(-c3nc4c(-n5cc(N[C@@H]6CCOC[C@@H]6N)cn5)ccnc4[nH]3)cccc21 |  | 210 nM |  | 
CN(C)Cc1cnn(-c2ccnc3[nH]c(-c4cn(C)c5ccc(C(=O)N(C)C)cc45)nc23)c1 | 1.2 nM | 1700 nM | > 40000 nM | 
CN(C)Cc1cc(-c2ccnc3[nH]c(-c4cccc5c4ccn5C)nc23)nn1C | 2.8 nM | 1000 nM | 13000 nM | 
CNC(=O)c1cc2c(-c3nc4c(-n5cc(CN(C)C)cn5)ccnc4[nH]3)cn(C)c2cn1 | 0.18 nM | 870 nM | > 40000 nM | 
CNC(=O)c1ccc2c(c1)c(-c1nc3c(-n4cc(CN(C)C)cn4)ccnc3[nH]1)cn2C | 0.15 nM | 210 nM |  | 
Cc1nnc(-c2ncn3ccc(Nc4nccc(-c5cc(CN(C)C)n(C)n5)n4)cc23)o1 | 0.21 nM |  |  | 
Cc1nnc(-c2ccc3c(c2)c(-c2nc4c(-n5cc(CN(C)C)c(C)n5)ccnc4[nH]2)cn3C)o1 | 0.098 nM | 290 nM |  | 
CN(C)Cc1cnn(-c2ccnc3[nH]c(-c4cn(C)c5ccc(S(C)(=O)=O)cc45)nc23)c1 | 0.077 nM | 440 nM |  | 
CC(=O)Nc1ccc2c(c1)c(-c1nc3c(-n4cc(CN(C)C)c(C)n4)ccnc3[nH]1)cn2C | 0.17 nM | 200 nM |  | 

Second part, led by results:

IC50 [1] | Structure (SMILES) | GI50 (SUD4) | IC50 [2] | other results
5 nM | COc1ccc(-c2nc3c(NCC4CCNCC4)c(Cl)cnc3[nH]2)cc1 |  |  | 
1 nM | Cn1ccc2c(-c3nc4c(-n5cc(CN6CC[C@H](O)C6)cn5)ccnc4[nH]3)cccc21 | 1800 nM | > 40000 nM | 
30 nM | Clc1cnc2[nH]c(-c3ccccc3)nc2c1OCC1CCNCC1 |  |  | 
4.6 nM | Cc1nn(-c2ccnc3[nH]c(-c4cccc5c4ccn5C)nc23)cc1CN1CC[C@H](O)C1 | 1200 nM | 27000 nM | 
0.48 nM | Cn1ccc2c(-c3nc4c(-n5cc(CN6CC[C@@H](O)C6)cn5)ccnc4[nH]3)cccc21 | 1200 nM | > 33000 nM | 
5.5 nM | CN(c1cnn(-c2ccnc3[nH]c(-c4cccc5c4ccn5C)nc23)c1)[C@@H]1CCOC[C@@H]1N | 1100 nM | 9200 nM | 
3.51 nM | Cn1ccc2c(-c3nc4c(OCC5CCNCC5)c(Cl)cnc4[nH]3)cccc21 |  |  | 
0.91 nM | Cc1nn(-c2ccnc3[nH]c(-c4cccc5c4ccn5C)nc23)cc1CN1CC[C@@H](O)C1 | 1100 nM | 31000 nM | Papp [3]: 0.63 ×10⁻⁶ cm/s; solubility [4]: < 20 µM; logD [5]: 2.9; hepatocyte CLint [6]: 40 µL/min/1e6 cells; CLint [7]: 63 µL/min/mg
0.83 nM | Cc1nn(-c2ccnc3[nH]c(-c4cccc5c4ccn5C)nc23)cc1CN(C)C | 770 nM | 2600 nM | solubility [4]: 89 µM (≈ 34.3 µg/mL); logD [5]: 2.8; hepatocyte CLint [6]: 127 µL/min/1e6 cells; CLint [7]: 37 µL/min/mg
